Patent publication US12012390B2, “Flavone compounds for the treatment and prophylaxis of hepatitis B virus disease” (priority 2018, dated 2024)
Read-outs that look alike come from different tables or passages of the source.

How the values were obtained:
[1] = test system: HBV in primary human hepatocytes (PHH); test: Cryopreserved primary human hepatocytes (PHH) HBV infection assay; assay type: cell-based; details: HBV-infected cryopreserved PHH, 9 days post-compound treatment
Experimental: This assay is used to confirm the anti-HBV effect of the compounds in HBV PHH infection assay. Cryopreserved PHH (BioreclamationIVT, Lot YJM) was thawed at 37° C. and gently transferred into pre-warmed InVitroGRO HT medium (BioreclamationIVT, Cat. S03317). The mixture was centrifuged at 70 relative centrifugal force (RCF) for 3 minutes at RT, and the supernatant was discarded. Pre-warmed InVitroGRO CP medium (BioreclamationIVT, Cat #S03316) was added to the cell pellet to gently re-suspend cells. The cells were seeded at the density of 5.8×10^4 cells per well to collagen I coated 96-well plate (Gibco, Cat. A1142803) with the InVitroGRO CP medium. All plates were incubated at 37° C. with 5% CO2 and 85% humidity.
At 20 hours after plating, the medium was changed to PHH culture medium (Dulbecco's Modified Eagle Medium (DMEM)/F12 (1:1) (Gibco, Cat. 11320-033), 10% fetal bovine serum (Gibco Cat. 10099141), 100 U/mL penicillin, 100 μg/mL streptomycin (Gibco, Cat. 151401-122), 5 ng/mL human epidermal growth factor (Invitrogen Cat. PHG0311L), 20 ng/mL dexamethasone (Sigma, Cat. D4902) and 250 ng/mL human recombinant insulin (Gibco, Cat. 12585-014)). And the cells were incubated at 37° C. with 5% CO2 and 85% humidity for 4 hours. The medium was then changed to pre-warmed PHH culture medium containing 4% polyethylene glycol (PEG) MW8000 (Sigma, Cat. P1458-50ML) and 1% DMSO (Sigma, Cat. D2650). 5.8×10^6 genomic equivalents of HBV were added into the medium.
At 24 hours post-infection, the cells were gently washed with PBS and refreshed with PHH culture medium supplemented with 1% DMSO, and 0.25 mg/mL Matrix gel (Corning, Cat. 356237) at 200 μL per well. All plates were immediately placed in at 37° C. CO2 incubator.
24 hours later, serial dilutions of compounds made with DMSO were further diluted with the same culture medium (PHH culture medium supplemented with 1% DMSO and 0.25 mg/mL Matrix gel as described above) before they were added to the cells to reach desired final compound concentrations and 1% DMSO concentration. The medium containing the compounds were refreshed every three days.
At 9 days post-compound treatment, extracellular HBsAg level were measured with Chemiluminescence Immuno Assay (CLIA) kit (Autobio, HBsAg Quantitative CLIA). Extracellular HBV DNA was extracted by MagNA Pure 96 system (Roche) and then determined by quantitative PCR with the following primers and probe: […]
HBsAg IC50 and HBV DNA IC50 values were derived from the dose-response curve using 4 parameter logistic curve fit method. The compounds of formula (I) have HBsAg IC50<20 μM, particularly <1 μM; and HBV DNA IC50<50 μM. Test results of the compounds of this invention as well as the reference compounds in Cryopreserved PHH assay are given in Table 2 and Table 3.

[2] = test system: HBeAg level (surrogate marker for cccDNA) in HepDES19 cells; test: Engineered HepDES19 primary screen assay (HBeAg as surrogate marker for cccDNA); assay type: cell-based, HBV
From the text: The assay was employed to screen for novel cccDNA inhibitors. HepDES19 is a cccDNA-producing cell line. In this cell line, HBeAg in the cell culture supernatant as surrogate marker, as HBeAg production depends on cccDNA level and activity. HepDES19 is an engineered cell line which contains a 1.1 unit length HBV genome, and pgRNA transcription from the transgene is controlled by Tetracycline (Tet). In the absence of Tet, pgRNA transcription will be induced, but HBV e antigen (HBeAg) could not be produced from this pgRNA due to very short leader sequence before the HBeAg start codon and the start codon is disrupted. Only after cccDNA is formed, the missing leader sequence and start codon mutation would be restored from the 3′-terminal redundancy of pgRNA, and then HBeAg could be synthesized. Therefore, HBeAg could be used as a surrogate marker for cccDNA (Zhou, T. et al., Antiviral Res. (2006), 72(2), 116-124; Guo, H. et al., J. Virol. (2007), 81(22), 12472-12484).
HepDES19 cells were seeded at 2×10^6 cells per T150 flask and cultured with the culture medium (Dulbecco's Modified Eagle Medium: Nutrient Mixture F-12 [DMEM-F12, Gibco Cat. 11320-82], 10% Fetal Bovine Serum [FBS, Clontech Cat. 631101], 0.1 mM Non-Essential Amino Acids Solution [NEAA, Gibco Cat. 11140-050], 50 μg/mL Penicillin-Streptomycin [PS, Invitrogen Cat. 15140-163], 500 μg/mL Geneticin [G418, Invitrogen Cat. 10131-027]) containing 3 μg/mL Tet (Sigma, Cat. 87128) for 5 days. Cells were then seeded at 4×10^6 cells per T150 in the same culture medium as described above in the absence of Tet for 8 days. Cells were then harvested and frozen at density of 2×10^6 cells per mL. For compound testing, the frozen cells were thawed and seeded into 96-well plates at a density of 6×10^4 cells per well. At 24 hrs after seeding, half log serial dilutions of compounds made with Dimethyl sulfoxide (DMSO, Sigma, Cat. D2650) were further diluted with the same culture medium as described above before they were added to the cells to reach desired final compound concentrations and 1% DMSO concentration. Plates were then incubated at 37° C. for another 5 days before measurement of HBeAg level and cell viability. Intracellular HBeAg level were measured with enzyme-linked immunosorbent assay (ELISA) kit (Shanghai Kehua Diagnostic Medical Products Co., Ltd). Cell viability was assessed using Cell Counting Kit-8 (Donjindo, Cat. CK04-20). IC50 values were derived from the dose-response curve using 4 parameter logistic curve fit method.
The compounds of the present invention were tested for their capacity to inhibit extracellular HBeAg level as described herein.

[3] = extracellular HBsAg by CLIA, read-out: HBsAg IC50
[4] = read-out: IC50 (HBeAg) in HepDES19 primary screen assay, HepDES19 cells, 5 days incubation with compound, HBeAg by ELISA
[5] = Hepatitis B virus, Hepatocyte, 216 h, extracellular HBsAg by CLIA, read-out: HBsAg IC50
[6] = Hepatitis B virus, HepDES19, 120 h, read-out: IC50 (HBeAg) in HepDES19 primary screen assay, HepDES19 cells, 5 days incubation with compound, HBeAg by ELISA

## CCOC(=O)C1CC1OCCOc1ccc(-c2cc(=O)c3cccc(Cl)c3o2)cc1 (single isomer, unassigned) [Example 4-A, ethyl 2-[2-[4-(8-chloro-4-oxo-chromen-2-yl)phenoxy]ethoxy]cyclopropanecarboxylate]
[1]; [3]
  IC50: 6340 nM
[2]; [4]
  IC50: 530 nM

## CCOC(=O)C1CC1OCCOc1ccc(-c2cc(=O)c3cccc(Cl)c3o2)cc1 (single isomer, unassigned) [Example 4-B, ethyl 2-[2-[4-(8-chloro-4-oxo-chromen-2-yl)phenoxy]ethoxy]cyclopropanecarboxylate]
[1]; [3]
  IC50: 510 nM
[2]; [4]
  IC50: 5230 nM

## O=C(O)[C@H]1C[C@H]1OCCOc1ccc(-c2cc(=O)c3cccc(Cl)c3o2)cc1 (single isomer, unassigned) [Example 5-B, 2-[2-[4-(8-chloro-4-oxo-chromen-2-yl)phenoxy]ethoxy]cyclopropanecarboxylic acid]
[1]; [5]
  IC50: 1780 nM
[2]; [4]
  IC50: 11200 nM

## N#Cc1ccc2c(=O)cc(-c3ccc(OCCOC4CC(C(=O)O)C4)cc3)oc2c1Cl (single isomer, unassigned) [Example 23-B, 3-[2-[4-(8-chloro-7-cyano-4-oxo-chromen-2-yl)phenoxy]ethoxy]cyclobutanecarboxylic acid]
[1]; [5]
  IC50: 6890 nM

## O=c1cc(-c2ccc(OCCO[C@H]3C[C@@H](C(=O)O)C3)nc2)oc2c(Cl)cccc12 (single isomer, unassigned) [Example 38-A, 3-[2-[[5-(8-chloro-4-oxo-chromen-2-yl)-2-pyridyl]oxy]ethoxy]cyclobutanecarboxylic acid]
[1]; [5]
  IC50: 460 nM
[2]; [4]
  IC50: 5290 nM

## O=c1cc(-c2ccc(OCCO[C@H]3C[C@@H](C(=O)O)C3)nc2)oc2c(Cl)cccc12 (single isomer, unassigned) [Example 38-B, 3-[2-[[5-(8-chloro-4-oxo-chromen-2-yl)-2-pyridyl]oxy]ethoxy]cyclobutanecarboxylic acid]
[1]; [3]
  IC50: 880 nM
[2]; [4]
  IC50: 760 nM

## COC(=O)C1CC(OCCOc2ccc(-c3oc4c(Cl)cc(F)cc4c(=O)c3OC(F)(F)F)cc2)C1 (single isomer, unassigned) [Example 62-A, methyl 3-[2-[4-[8-chloro-6-fluoro-4-oxo-3-(trifluoromethoxy)chromen-2-yl]phenoxy]ethoxy]cyclobutanecarboxylate]
[1]; [5]
  IC50: 4220 nM
[2]; [6]
  IC50: 1010 nM

## O=C(O)C1CC(OCCOc2ccc(-c3cc(=O)c4cc(C(F)(F)F)cc(Cl)c4o3)cc2)C1 (single isomer, unassigned) [Example 66-B, 3-[2-[4-[8-chloro-4-oxo-6-(trifluoromethyl)chromen-2-yl]phenoxy]ethoxy]cyclobutanecarboxylic acid]
[1]; [5]
  IC50: 4780 nM
[2]; [6]
  IC50: 13200 nM

## O=C(O)C1CC(OCCOc2ccc(-c3cc(=O)c4ccc(C5CC5)c(Cl)c4o3)cc2)C1 (single isomer, unassigned) [Example 70-B, 3-[2-[4-(8-chloro-7-cyclopropyl-4-oxo-chromen-2-yl)phenoxy]ethoxy]cyclobutanecarboxylic acid]
[1]; [5]
  IC50: 4790 nM
[2]; [4]
  IC50: 2140 nM

## O=c1cc(-c2ccc(OCCO[C@H]3C[C@@H](C(=O)O)C3)cc2)oc2c(Cl)cccc12 [Example 1-A, cis-3-[2-[4-(8-chloro-4-oxo-chromen-2-yl)phenoxy]ethoxy]cyclobutanecarboxylic acid]
[1]; [5]
  IC50: 720 nM
[2]; [6]
  IC50: 140 nM

## O=c1cc(-c2ccc(OCCO[C@H]3C[C@H](C(=O)O)C3)cc2)oc2c(Cl)cccc12 [Example 1-B, trans-3-[2-[4-(8-chloro-4-oxo-chromen-2-yl)phenoxy]ethoxy]cyclobutanecarboxylic acid]
[1]; [5]
  IC50: 80 nM
[2]; [6]
  IC50: 140 nM

## CCOC(=O)C1CC(OCCOc2ccc(-c3cc(=O)c4cccc(Cl)c4o3)cc2)C1 (stereo not drawn) [Example 2, Ethyl 3-[2-[4-(8-chloro-4-oxo-chromen-2-yl)phenoxy]ethoxy]cyclobutanecarboxylate]
[1]; [5]
  IC50: 190 nM
[2]; [6]
  IC50: 2480 nM

## O=C(O)c1cccc(OCCOc2ccc(-c3cc(=O)c4cccc(Cl)c4o3)cc2)c1 [Example 3, 3-[2-[4-(8-chloro-4-oxo-chromen-2-yl)phenoxy]ethoxy]benzoic acid]
[1]; Hepatitis B virus, Hepatocyte, 216 h, extracellular HBV DNA by quantitative PCR, read-out: HBV DNA IC50
  IC50: 35700 nM
[1]; [5]
  IC50: 12500 nM
[2]; [6]
  IC50: 150 nM

## O=C(O)C1CCC(OCCOc2ccc(-c3cc(=O)c4cccc(Cl)c4o3)cc2)C1 (stereo not drawn) [Example 6, 3-[2-[4-(8-chloro-4-oxo-chromen-2-yl)phenoxy]ethoxy]cyclopentanecarboxylic acid]
[1]; [5]
  IC50: 860 nM
[2]; [6]
  IC50: 1950 nM

## O=C(O)COC1CC(COc2ccc(-c3cc(=O)c4cccc(Cl)c4o3)cc2)C1 (stereo not drawn) [Example 8, 2-[3-[[4-(8-chloro-4-oxo-chromen-2-yl)phenoxy]methyl]cyclobutoxy]acetic acid]
[1]; [5]
  IC50: 120 nM
[2]; [6]
  IC50: 1340 nM

## O=C(O)CCOCCOc1ccc(-c2cc(=O)c3cccc(Cl)c3o2)cc1 [Example 10, 3-[2-[4-(8-chloro-4-oxo-chromen-2-yl)phenoxy]ethoxy]propanoic acid]
[1]; [5]
  IC50: 2720 nM
[2]; [6]
  IC50: 790 nM

## CC(C)(COCCOc1ccc(-c2cc(=O)c3cccc(Cl)c3o2)cc1)C(=O)O [Example 11, 3-[2-[4-(8-chloro-4-oxo-chromen-2-yl)phenoxy]ethoxy]-2,2-dimethyl-propanoic acid]
[1]; [5]
  IC50: 12500 nM
[2]; [6]
  IC50: 570 nM

## CC(COc1ccc(-c2cc(=O)c3cccc(Cl)c3o2)cc1)OC1CC(C(=O)O)C1 (stereo not drawn) [Example 12, 3-[2-[4-(8-chloro-4-oxo-chromen-2-yl)phenoxy]-1-methyl-ethoxy]cyclobutanecarboxylic acid]
[1]; [5]
  IC50: 210 nM
[2]; [6]
  IC50: 1070 nM
